For assay [1], the target named is T1, GABA A receptor α5β3γ2 (Homo sapiens, UniProt P18507+P31644).
T1 construct: expressed in transfected cells; host or cells: HEK293 (transiently transfected), membranes
Put plainly: [3H]flumazenil competition binding, human α5β3γ2. The method, then:
(§1) The affinity of compounds at GABA A receptor subtypes was measured by competition for [^3H]flumazenil (85 Ci/mmol; Roche) binding to HEK293 cells expressing rat (stably transfected) or human (transiently transfected) receptors of composition α1β3γ2, α2β3γ2, α3β3γ2 and α5β3γ2.
(§2) Cell pellets were suspended in Krebs-tris buffer (4.8 mM KCl, 1.2 mM CaCl2, 1.2 mM MgCl2, 120 mM NaCl, 15 mM Tris; pH 7.5; binding assay buffer), homogenized by polytron for ca. 20 sec on ice and centrifuged for 60 min at 4° C. (50000 g; Sorvall, rotor: SM24=20000 rpm). The cell pellets were resuspended in Krebs-tris buffer and homogenized by polytron for ca. 15 sec on ice. Protein was measured (Bradford method, Bio-Rad) and aliquots of 1 mL were prepared and stored at −80° C.
(§3) Radioligand binding assays were carried out in a volume of 200 μL (96-well plates) which contained 100 μL of cell membranes, [^3H]flumazenil at a concentration of 1 nM for α1, α2, α3 subunits and 0.5 nM for α5 subunits and the test compound in the range of 10^−10−3×10^−6 M. Nonspecific binding was defined by 10^−5 M diazepam and typically represented less than 5% of the total binding. Assays were incubated to equilibrium for 1 hour at 4° C. and harvested onto GF/C uni-filters (Packard) by filtration using a Packard harvester and washing with ice-cold-wash buffer (50 mM Tris; pH 7.5). After drying, filter-retained radioactivity was detected by liquid scintillation counting. Ki values were calculated using Excel-Fit (Microsoft) and are the means of two determinations.

Assay [2] concerns the target T2, GABA A receptor α2β3γ2 (Homo sapiens, UniProt P18507+P47869).
T2 construct: expressed in transfected cells; host or cells: HEK293 (transiently transfected), membranes
Put plainly: [3H]flumazenil competition binding, human α2β3γ2. How it is done:
as §1, §2, §3

In assay [3] the target is T3, GABA A receptor α3β3γ2 (Homo sapiens, UniProt P18507+P34903).
T3 construct: expressed in transfected cells; host or cells: HEK293 (transiently transfected), membranes
The assay can be described thus: [3H]flumazenil competition binding, human α3β3γ2. How it is done:
as §1, §2, §3

The target in assay [4] is T4, GABA A receptor α1β3γ2 (Homo sapiens, UniProt P14867+P18507).
T4 construct: expressed in transfected cells; host or cells: HEK293 (transiently transfected), membranes
The assay can be described thus: [3H]flumazenil competition binding, human α1β3γ2. The method, then: as §1, §2, §3

The Ki is the dissociation constant of the complex between target and ligand, obtained from inhibition or displacement. A high value points to a looser hold on the target. For `CCOC(=O)Nc1ccc2c(c1)-c1ncnn1Cc1c(C(=O)OCC)ncn1-2` [Example 43, Ethyl 3-ethoxycarbonylamino-9H-imidazo[1,5-a][1,2,4]triazolo[1,5-d][1,4]benzodiazepine-10-carboxylate], the Ki was 2.6 nM in assay [1], 22 nM in assay [2], 14.4 nM in assay [3] and 5.3 nM in assay [4].

As for `CCNC(=O)Nc1ccc2c(c1)-c1ncnn1Cc1c(C(=O)OCC)ncn1-2` [Example 44, Ethyl 3-(3-ethyl-ureido)-9H-imidazo[1,5-a][1,2,4]triazolo[1,5-d][1,4]benzodiazepine-10-carboxylate], the Ki in assay [1] was 6.9 nM; in assay [2], 26 nM; in assay [3], 12.4 nM; in assay [4], 20.3 nM.
